The target in one data set is human PDE2A1 (Homo sapiens (Human), UniProt O00408). As to the kind of experiment: PDE2A inhibition, PDE IMAP TR-FRET assay. The following applies: FAM-cAMP substrate. The format is biochemical. How it is done: Purified human PDE2A1 and PDE10A2 enzymes were obtained from BPS Bioscience (San Diego, Calif.). IMAP™ TR-FRET progressive binding system, FAM-cAMP substrate were from Molecular Devices (Sunnyvale, Calif.).
The PDE IMAP assay was conducted in a 384-well black Greiner polypropylene plate (Sigma, St. Louis, Mo.). PDE inhibitors were serial diluted in 100% DMSO and dispensed into assay plate at […] per well using Echo® Liquid Handling System from LABCYTE. Ten μL of PDE enzyme in IMAP reaction buffer (10 mM Tris-HCl, pH 7.2, 10 mM MgCl2, 0.05% NaN3, and 0.01% Tween-20) was added into the assay wells. The PDE enzyme concentration used was based on each lot of enzyme activity, to ensure enzyme reaction falls in a linear range under assay condition. 1.4 nM of PDE2 or […] PDE10 were used in the assay system. Enzyme was pre-incubated with inhibitors for 60 minutes at room temperature before addition of 10 uL of substrate addition, which results in 100 nM of FAM-cAMP in the reaction. Enzyme reaction was allowed to proceed at room temperature for 90 min, and the reaction is stopped by 55 μl addition of binding reagent according to manufacturer's recommendation. The mixture is further incubated at room temperature for additional 4 hours, and signal was read on an Envision multimode reader (PerkinElmer). Fluorescence signals were measured at 520 nm and 485 nm. The signal ratio at 520/485 nm corresponded to the generation of reaction product of AMP, and it was used in all data analysis. Values from DMSO-treated wells were normalized to POC=100, and no-enzyme wells were normalized to POC=0. IC50 values were determined by using the Genedata Screener V9.0.1. The curve fitting algorithm used for dose response data analysis in Genedata Screener is a custom implementation of a robust curve-fitting algorithm called ROUT (Robust regression with outlier detection) and uses a four-parameter logistical (4 PL) Hill model.
For orientation: TR-FRET usually uses a lanthanide donor and a delayed reading to cut background.

The subject of the next data set is rat MDR1 (mdr1a, P-gp). As to the kind of experiment: Transcellular transport in rat mdr1a-transfected LLC-PK1 cells. It counts as in vitro ADME. The note with it: pH 7.4, mdr1a-LLC-PK1, 5 μM test compound. How it is done:
(§1) Digoxin and mannitol were purchased from Sigma-Aldrich (St. Louis, Mo.). 3H-digoxin and 14C-mannitol were purchased from PerkinElmer Life and Analytical Sciences (Boston, Mass.). Transport buffer was prepared using Hank's balanced salt solution (HBSS) supplemented with 10 mM Hepes, pH 7.4 and 0.1% BSA (HHBSS, Invitrogen, Grand Island, N.Y., BSA, Bovine Serum Albumin, Calbiochem, La Jolla, Calif.).
(§2) Cultures were incubated at 37° C. in a humidified (95% relative humidity) atmosphere of 5% CO2/95% air. The parental cell line LLC-PK1 (porcine renal epithelial cells) was purchased from American Type Culture Collection (ATCC, Manassas, Va.). Human MDR1 and Sprague-Dawley rat mdra1 transfectants in LLC-PK1 were generated at Amgen (Thousand Oaks, Calif.). Cells were cultured in Medium 199 supplemented with 2 mM L-glutamine, penicillin (50 units/mL), streptomycin (50 μg/mL), and 10% (v/v) fetal bovine serum (all from Invitrogen) (Schinkel et al, 1995).
(§3) LLC-PK1, MDR1-LLC-PK1, and mdr1a-LLC-PK1 cell monolayers were seeded onto porous (1.0 μm) polycarbonate 96-well transwell membrane filters (Millipore Corp., Billerica, Mass.) and cultured for six days with one media replacement on day four prior to transwell experiments. Cells were washed once with warmed HHBS prior to transwell experiments. Experiments were initiated by replacing the buffer in each compartment with 0.15 mL of HBSS containing 0.1% BSA with and without 5 μM of test compound in triplicate wells. The plates were incubated for two hours at 37° C. in an EVO incubator with shaking. Aliquots (100 μl) from both donor and receiver chambers were transferred to 96 well plates or scintillation vials. Protein was precipitated by addition of 200 μL acetonitrile containing 0.1% formic acid and prazosin (25 ng/mL) as internal standard. After vortexing and centrifugation at 3000 rpm for 20 min, 150 μL supernatant samples were transferred to a new plate containing 50 μL water for LC-MS/MS analysis. Transcellular transport of 3H-Digoxin was used as a positive control for Pgp. Paracellular permeability of 14C-Mannitol was used to measure the integrity of the monolayer. Sample radioactivity was measured using a liquid scintillation counter (Packard Tri-Carb 2910TR, PerkinElmer).
(§4) The apparent permeability coefficient (Papp) of all tested agents was estimated from the slope of cumulative amount (dQ) of the agent vs. time (dt), and the equation: Papp=(dQ/dt)/(A*C0)
(§5) where dQ/dt is the penetration rate of the agent […], A is the surface area of the cell layer on the Transwell (0.11 cm2), and CO is the initial concentration of the test compound (μM).

The target of another data set is human MDR1 (P-gp) (Homo sapiens (Human), UniProt P08183). As to the kind of experiment: Transcellular transport in human MDR1-transfected LLC-PK1 cells. It counts as in vitro ADME. The following applies: pH 7.4, MDR1-LLC-PK1, 5 μM test compound. How it is done: as §1, §2, §3, §4, §5

Usually IC50 stands for the concentration that inhibits the measured activity by half. A lower IC50 goes with greater potency in that assay. What is called efflux ratio is the permeability from basolateral to apical divided by that in the opposite direction, in the common usage.

Sequence of human MDR1 (P-gp) (P08183 whole entry): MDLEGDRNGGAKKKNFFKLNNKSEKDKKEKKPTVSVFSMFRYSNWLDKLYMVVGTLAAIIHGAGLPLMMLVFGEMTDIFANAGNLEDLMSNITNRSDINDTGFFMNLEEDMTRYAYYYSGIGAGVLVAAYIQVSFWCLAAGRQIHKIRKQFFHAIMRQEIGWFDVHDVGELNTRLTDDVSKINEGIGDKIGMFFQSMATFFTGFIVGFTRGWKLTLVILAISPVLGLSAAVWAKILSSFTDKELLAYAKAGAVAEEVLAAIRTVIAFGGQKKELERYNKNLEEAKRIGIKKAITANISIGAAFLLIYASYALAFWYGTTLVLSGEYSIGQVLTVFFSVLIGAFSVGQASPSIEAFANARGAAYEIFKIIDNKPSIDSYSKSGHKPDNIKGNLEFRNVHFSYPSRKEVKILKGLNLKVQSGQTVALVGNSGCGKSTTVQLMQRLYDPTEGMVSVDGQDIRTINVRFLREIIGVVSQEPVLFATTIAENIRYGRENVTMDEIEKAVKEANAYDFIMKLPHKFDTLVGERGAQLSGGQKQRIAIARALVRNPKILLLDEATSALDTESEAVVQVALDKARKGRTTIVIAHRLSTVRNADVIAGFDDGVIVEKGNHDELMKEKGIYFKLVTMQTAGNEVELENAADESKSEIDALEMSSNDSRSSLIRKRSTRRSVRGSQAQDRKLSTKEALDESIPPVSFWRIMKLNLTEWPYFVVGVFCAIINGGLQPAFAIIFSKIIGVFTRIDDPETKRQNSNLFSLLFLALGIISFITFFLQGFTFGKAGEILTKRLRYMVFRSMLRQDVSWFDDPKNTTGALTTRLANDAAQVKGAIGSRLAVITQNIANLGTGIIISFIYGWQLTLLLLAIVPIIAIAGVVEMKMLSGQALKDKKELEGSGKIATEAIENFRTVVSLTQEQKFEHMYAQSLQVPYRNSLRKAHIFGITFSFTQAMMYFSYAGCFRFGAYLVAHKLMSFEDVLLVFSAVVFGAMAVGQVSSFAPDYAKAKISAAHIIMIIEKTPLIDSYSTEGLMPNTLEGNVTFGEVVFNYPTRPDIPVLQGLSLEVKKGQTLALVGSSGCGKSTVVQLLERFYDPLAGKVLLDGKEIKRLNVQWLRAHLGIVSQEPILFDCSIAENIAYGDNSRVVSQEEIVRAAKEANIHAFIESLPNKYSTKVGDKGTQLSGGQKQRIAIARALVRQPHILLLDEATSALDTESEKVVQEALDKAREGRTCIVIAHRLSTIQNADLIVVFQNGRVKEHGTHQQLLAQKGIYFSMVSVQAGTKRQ
Sequence of human PDE2A1 (O00408 other isoform, or with tags, fused parts or gaps): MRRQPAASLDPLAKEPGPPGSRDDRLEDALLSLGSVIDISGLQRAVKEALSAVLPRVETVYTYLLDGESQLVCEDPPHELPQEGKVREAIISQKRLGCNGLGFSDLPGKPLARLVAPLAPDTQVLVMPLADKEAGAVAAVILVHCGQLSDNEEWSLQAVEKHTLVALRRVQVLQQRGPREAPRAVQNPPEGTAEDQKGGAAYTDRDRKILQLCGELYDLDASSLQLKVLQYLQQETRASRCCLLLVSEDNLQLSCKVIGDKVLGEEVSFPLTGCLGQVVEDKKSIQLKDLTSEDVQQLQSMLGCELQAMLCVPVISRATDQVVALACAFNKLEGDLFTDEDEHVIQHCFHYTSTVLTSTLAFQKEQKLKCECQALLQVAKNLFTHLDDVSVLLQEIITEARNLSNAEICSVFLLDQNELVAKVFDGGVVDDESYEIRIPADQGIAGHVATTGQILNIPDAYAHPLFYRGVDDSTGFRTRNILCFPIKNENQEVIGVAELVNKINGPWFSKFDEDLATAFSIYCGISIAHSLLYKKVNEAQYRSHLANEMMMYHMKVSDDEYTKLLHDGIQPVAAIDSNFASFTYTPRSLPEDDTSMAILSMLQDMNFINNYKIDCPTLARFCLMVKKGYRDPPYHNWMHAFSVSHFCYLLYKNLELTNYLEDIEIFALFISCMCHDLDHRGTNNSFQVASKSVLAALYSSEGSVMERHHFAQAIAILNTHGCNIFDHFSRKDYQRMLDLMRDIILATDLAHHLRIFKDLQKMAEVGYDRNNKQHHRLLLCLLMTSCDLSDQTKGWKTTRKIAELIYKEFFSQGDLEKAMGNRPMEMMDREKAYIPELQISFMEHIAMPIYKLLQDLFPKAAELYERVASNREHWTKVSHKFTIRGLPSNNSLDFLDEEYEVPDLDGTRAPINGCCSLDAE

`CNC(=O)c1ccc(-c2nccnc2C2CCN(c3ccc4ccc(Cl)cc4n3)CC2)cc1F` [Example 1, 4-(3-(1-(7-Chloroquinolin-2-Yl)Piperidin-4-Yl)Pyrazin-2-Yl)-2-Fluoro-N-Methylbenzamide] returned an IC50 at human PDE2A1 of 10 µM. Further, the efflux ratio at 2 h, 5 μM was found to be 2.3 with rat MDR1 (mdr1a, P-gp) and 2.9 on human MDR1 (P-gp).
As for `CNC(=O)c1ccc(-c2nccnc2C2CCN(c3ccc4ccc(F)cc4n3)CC2)cc1F` [Example 2, 2-Fluoro-4-(3-(1-(7-Fluoroquinolin-2-Yl)Piperidin-4-Yl) Pyrazin-2-Yl)-N-Methylbenzamide], half-maximal inhibition at human PDE2A1 (IC50) required 10 µM. Moreover, the efflux ratio at 2 h, 5 μM with rat MDR1 (mdr1a, P-gp) turned out to be 2.7; at human MDR1 (P-gp), 2.4.
In turn, `CNC(=O)c1ccc(-c2nccnc2C2CCN(c3ccc4ccccc4n3)CC2)cc1F` [Example 3, 2-Fluoro-N-Methyl-4-(3-(1-(Quinolin-2-Yl)Piperidin-4-Yl)Pyrazin-2-Yl)Benzamide] came in with an IC50 at human PDE2A1 of 10 µM. Further, the efflux ratio at 2 h, 5 μM in the data set with rat MDR1 (mdr1a, P-gp) turned out to be 2.1; at human MDR1 (P-gp), 2.
`CNC(=O)c1ccc(-c2nccnc2C2CCN(c3ccc4cc(F)ccc4n3)CC2)cc1F` [Example 4, 2-Fluoro-4-(3-(1-(6-Fluoroquinolin-2-Yl)Piperidin-4-Yl)Pyrazin-2-Yl)-N-Methylbenzamide] registered a concentration for half-maximal inhibition (IC50) against human PDE2A1 of 10 µM. Further, the efflux ratio at 2 h, 5 μM worked out at 2.2 with rat MDR1 (mdr1a, P-gp) and 3.4 on human MDR1 (P-gp).
Taken in the same sequence, the figures for `CNC(=O)c1ccc(-c2nccnc2C2CCN(c3ccc4cccc(F)c4n3)CC2)cc1F` [Example 5, 2-Fluoro-4-(3-(1-(8-Fluoroquinolin-2-Yl)Piperidin-4-Yl)Pyrazin-2-Yl)-N-Methylbenzamide] were 10 µM, 2.3 and 2.5.
`CNC(=O)c1ccc(-c2nccnc2C2CN(c3ncc4ccccc4n3)C2)cc1F` [Example 6, 2-Fluoro-N-Methyl-4-(3-(1-(Quinazolin-2-Yl)Azetidin-3-Yl)Pyrazin-2-Yl)Benzamide]: on human PDE2A1, the midpoint of inhibition, the IC50, lay at 10 µM. Further, the efflux ratio at 2 h, 5 μM in the data set on rat MDR1 (mdr1a, P-gp) came to 1.2; at human MDR1 (P-gp), 1.8.
With `CNC(=O)c1ccc(-c2nccnc2C2CN(c3ccc4ccccc4n3)C2)cc1F` [Example 7, 2-Fluoro-N-Methyl-4-(3-(1-(Quinolin-2-Yl)Azetidin-3-Yl) Pyrazin-2-Yl)Benzamide], the IC50 against human PDE2A1 was 10 µM. In addition, the efflux ratio at 2 h, 5 μM worked out at 3.1 in the data set with rat MDR1 (mdr1a, P-gp) and 2.95 at human MDR1 (P-gp).
As to `CNC(=O)c1ccc(-c2nccnc2C2CN(c3ccc4ccc(F)cc4n3)C2)cc1F` [Example 8, 2-Fluoro-4-(3-(1-(7-Fluoroquinolin-2-Yl)Azetidin-3-Yl) Pyrazin-2-Yl)-N-Methylbenzamide], at human PDE2A1, the 50% inhibitory concentration (IC50) stood at 10 µM. The efflux ratio at 2 h, 5 μM in the data set with rat MDR1 (mdr1a, P-gp) is 2.5; on human MDR1 (P-gp), 2.8.
As to `CNC(=O)c1ccc(-c2nccnc2C2CN(c3ncc4ccc(F)cc4n3)C2)cc1F` [Example 9, 2-Fluoro-4-(3-(1-(7-Fluoroquinazolin-2-Yl)Azetidin-3-Yl)Pyrazin-2-Yl)-N-Methylbenzamide], the IC50 on human PDE2A1 was 10 µM. For the same compound, the efflux ratio at 2 h, 5 μM worked out at 2.7 with rat MDR1 (mdr1a, P-gp) and 1.8 at human MDR1 (P-gp).
In turn, `CNC(=O)c1ccc(-c2nccnc2C2CN(c3ncc4ccc(Cl)cc4n3)C2)cc1F` [Example 10, 4-(3-(1-(7-Chloroquinazolin-2-Yl)Azetidin-3-Yl)Pyrazin-2-Yl)-2-Fluoro-N-Methylbenzamide] showed an IC50 on human PDE2A1 of 7.38 µM. Further, the efflux ratio at 2 h, 5 μM turned out to be 1.2 in the data set with rat MDR1 (mdr1a, P-gp) and 1.8 on human MDR1 (P-gp).
As to `CNC(=O)c1ccc(-c2nccnc2C2CN(c3ncc4cc(F)ccc4n3)C2)cc1F` [Example 11, 2-Fluoro-4-(3-(1-(6-Fluoroquinazolin-2-Yl)Azetidin-3-Yl)Pyrazin-2-Yl)-N-Methylbenzamide], the IC50 at human PDE2A1 was found to be 10 µM. In addition, the efflux ratio at 2 h, 5 μM is 1.2 in the data set on rat MDR1 (mdr1a, P-gp) and 1.75 at human MDR1 (P-gp).
In turn, `CNC(=O)c1ccc(-c2nccnc2C2CN(c3ncc4cc(F)c(Cl)cc4n3)C2)cc1F` [Example 12, 4-(3-(1-(7-Chloro-6-Fluoroquinazolin-2-Yl)Azetidin-3-Yl)Pyrazin-2-Yl)-2-Fluoro-N-Methylbenzamide] gave an IC50 against human PDE2A1 of 10 µM. For the same compound, the efflux ratio at 2 h, 5 μM came to 2.8 with rat MDR1 (mdr1a, P-gp) and 1.85 on human MDR1 (P-gp).
Compound `CNC(=O)c1ccc(-c2nccnc2C2CN(c3ccc4cc(F)ccc4n3)C2)cc1F` [Example 13, 2-Fluoro-4-(3-(1-(6-Fluoroquinolin-2-Yl)Azetidin-3-Yl) Pyrazin-2-yl)-N-Methylbenzamide] gave an IC50 at human PDE2A1 of 10 µM. Also, the efflux ratio at 2 h, 5 μM stood at 2.7 with rat MDR1 (mdr1a, P-gp) and 3.02 at human MDR1 (P-gp).
Taken in the same sequence, the figures for `CNC(=O)c1ccc(-c2nccnc2C2CN(c3ccc4ncc(Cl)cc4n3)C2)cc1F` [Example 14, 4-(3-(1-(7-Chloro-1,5-Naphthyridin-2-Yl)Azetidin-3-Yl)Pyrazin-2-Yl)-2-Fluoro-N-Methylbenzamide] were 10 µM, 1.1 and 1.25.

(Values after patent US8691986B2, “Azetidine and piperidine compounds useful as PDE10 inhibitors” (Amgen Inc., priority 2012, dated 2014).)
